Source: patent US20230278972A1, “SUBSTITUTED HALOALKYL SULFONANILIDE HERBICIDES” (FMC Corporation, priority 2020, published 2023)

Columns and labels:
Assay type in all cases: in vivo
rice (Oryza sativa) = experiment: Test B1 flooded paddy test, rice; settings: 250 g ai/ha, Flood, applied to paddy water, 2-leaf stage, visually evaluated after 10 to 14 days
From the text: (§1) A dash (-) response means no test result.

[1] = test system: barnyardgrass (Echinochloa crus-galli); experiment: Test B1 flooded paddy test, barnyardgrass; settings: 250 g ai/ha, Flood, applied to paddy water, 2-leaf stage, visually evaluated after 10 to 14 days
From the text: as §1

[2] = test system: wheat (Triticum aestivum); experiment: Test A1 postemergence, wheat; settings: Postemergence
Outline: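 Plants grown in pots of loam/sand mix; preemergence = soil-directed spray on seeded pots, postemergence = spray at 1–2 leaves, height 2–10 cm; test chemicals formulated in non-phytotoxic solvent with surfactant.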

[3] = test system: Foxtail, Giant (giant foxtail, Setaria faberi); experiment: Test A1 preemergence, Foxtail, Giant
Outline: (§2)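 Both timings started from seed in a loam-sand blend. Preemergence pots got a directed soil application immediately; postemergence pots were sprayed when seedlings had one or two leaves and stood 2–10 cm. Each compound was prepared in a non-phytotoxic solvent plus surfactant.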

[4] = test system: Oat, Wild (wild oat, Avena fatua); experiment: Test A1 preemergence, Oat, Wild
Outline: as §2

kochia (Bassia scoparia) = experiment: Test A1 preemergence, kochia
Outline: as §2

[5] = test system: ducksalad (Heteranthera limosa); experiment: Test B1 flooded paddy test, ducksalad; settings: 250 g ai/ha, Flood, applied to paddy water, 2-leaf stage, visually evaluated after 10 to 14 days
From the text: as §1

[6] = 31 g ai/ha, 0 to 100 scale (0 no effect, 100 complete control), 10 days
[7] = 31 g ai/ha, 0 to 100 scale (0 no effect, 100 complete control)
[8] = 125 g ai/ha, 0 to 100 scale, 0 no effect, 100 complete control

SMILES | Plant response rating, Rice (0 to 100 scale, 0 is no effect, 100 is complete control) (rice (Oryza sativa)) | Plant response rating, Barnyardgrass (0 to 100 scale, 0 is no effect, 100 is complete control) [1] | Plant response rating, Wheat [2, 6] | Plant response rating, Wheat ([2]; 125 g ai/ha, 0 to 100 scale) | Plant response rating, Foxtail, Giant [3, 7] | Plant response rating, Foxtail, Giant [3, 8] | Plant response rating, Oat, Wild [4, 7] | Plant response rating, Oat, Wild [4, 8] | Plant response rating, Kochia (kochia (Bassia scoparia); [7]) | Plant response rating, Kochia (kochia (Bassia scoparia); [8]) | Plant response rating, Ducksalad (0 to 100 scale, 0 is no effect, 100 is complete control) [5]
CCOC(=O)N(c1cc(C(=O)N2C[C@@H](C)O[C@@H](C)C2)c(C)c(C)c1C)S(=O)(=O)C(F)(F)F [Compound 332] | 0 | 98 | 10 | 50 | 100 | 100 | 0 | 20 | 20 | 60 | 80
Cc1c(C(=O)N2CCCCC2)cc(NS(=O)(=O)C(F)(F)F)c(Cl)c1F [Compound 333] | 0 | 0 | 0 | 30 | 30 | 100 | 20 | 40 | 20 | 80 | 70
COC1CCCN(C(=O)c2cc(NS(=O)(=O)C(F)(F)F)c(Cl)c(F)c2C)C1 (stereo not shown) [Compound 334] | 10 | 15 | 0 | 0 | 40 | 70 | 10 | 20 | 0 | 20 | 60
Cc1c(NS(=O)(=O)C(F)(F)F)cc(C2=NOC3CCCC23)c(C)c1C (stereo not shown) [Compound 335] | 45 | 95 | 0 | 0 | 60 | 100 | 0 | 30 | 20 | 60 | 70
Cc1c(C2=NO[C@@H]3CCC[C@H]23)cc(N(COC(=O)C(C)(C)C)S(=O)(=O)C(F)(F)F)c(C)c1C [Compound 336, [[(Trifluoromethyl)sulfonyl][2,3,4-trimethyl-5-[(3aR,6aR)-3a,5,6,6a-tetrahydro-4H-cyclopent[d]isoxazol-3-yl]phenyl]amino]methyl 2,2-dimethylpropanoate] | 45 | 95 | 0 | 0 | 20 | 80 | 0 | 20 | 0 | 0 | 75
